{"source": "paper PMC3685428", "about": "(ACS medicinal chemistry letters, 2012)", "key": {"P. falciparum Dd2 strain": {"system": "P. falciparum Dd2 strain", "assay": "Proliferation of erythrocyte-stage P. falciparum, Dd2 strain", "format": "cell-based", "settings": "Plasmodium falciparum; for pIC50: DD2, Erythrocyte, read-out: IC50 against P. falciparum proliferation, Dd2 strain"}, "P. falciparum 3D7 strain": {"system": "P. falciparum 3D7 strain", "assay": "Proliferation of erythrocyte-stage P. falciparum, 3D7 strain", "format": "cell-based", "settings": "Plasmodium falciparum; for pIC50: 3D7, Erythrocyte, read-out: IC50 against P. falciparum proliferation, 3D7 strain"}, "[1]": {"target": "T1, recombinant P. falciparum DXR (PfDXR) (Plasmodium falciparum, UniProt O96693)", "T1 sequence (O96693 73-488)": "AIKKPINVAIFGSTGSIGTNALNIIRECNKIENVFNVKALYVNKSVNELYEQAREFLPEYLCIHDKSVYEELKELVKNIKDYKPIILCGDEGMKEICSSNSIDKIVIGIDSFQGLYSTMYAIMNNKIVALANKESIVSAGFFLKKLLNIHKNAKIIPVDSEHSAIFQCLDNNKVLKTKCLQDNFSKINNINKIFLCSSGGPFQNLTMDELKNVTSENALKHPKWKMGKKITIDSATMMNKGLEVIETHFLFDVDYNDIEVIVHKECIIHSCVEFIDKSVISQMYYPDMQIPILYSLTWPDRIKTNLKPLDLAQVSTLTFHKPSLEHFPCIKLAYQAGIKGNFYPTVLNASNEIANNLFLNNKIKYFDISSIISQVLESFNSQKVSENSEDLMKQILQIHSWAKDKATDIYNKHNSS", "assay": "Enzyme inhibition of recombinant P. falciparum DXR", "format": "biochemical", "settings": "relative to compound 7"}, "[2]": {"settings": "background statement, cited from earlier work"}, "P. falciparum malaria": {"system": "P. falciparum malaria", "settings": "clinical trials, in combination with clindamycin ref 7, 8; cited from earlier work"}}, "note": "pEC50, pIC50: −log10 of the molar value.", "data": [{"smiles": "CC(=O)N(O)CCC(c1ccccc1)P(=O)(O)O", "note": "(centres unmarked) [compound 7]", "values": [{"measurement": "pIC50", "setting": "P. falciparum Dd2 strain", "result": 5.77}, {"measurement": "pIC50", "setting": "P. falciparum 3D7 strain", "result": 5.46}]}, {"smiles": "O=CN(O)CCC(c1cccnc1)P(=O)(O)O", "note": "(centres unmarked) [4m]", "values": [{"measurement": "pIC50", "setting": "P. falciparum Dd2 strain", "result": 6.74}, {"measurement": "pIC50", "setting": "P. falciparum 3D7 strain", "result": 6.47}]}, {"smiles": "CC(=O)N(O)CCC(c1ccncc1)P(=O)(O)O", "note": "(centres unmarked) [5p]", "values": [{"measurement": "pIC50", "setting": "P. falciparum Dd2 strain", "result": 6.34}, {"measurement": "pIC50", "setting": "P. falciparum 3D7 strain", "result": 6.20}, {"measurement": "pEC50", "setting": "P. falciparum 3D7 strain; 3D7, read-out: EC50 against P. falciparum 3D7", "result": 6.51}, {"measurement": "Fold more inhibitory potency than compound 7 against PfDXR", "setting": "[1]", "result": "~ 6 ×"}]}, {"smiles": "O=CN(O)CCCP(=O)(O)O", "note": "[compound 1, Fosmidomycin]", "values": [{"measurement": "pIC50", "setting": "P. falciparum Dd2 strain", "result": 6.36}, {"measurement": "pIC50", "setting": "P. falciparum 3D7 strain", "result": 5.93}, {"measurement": "Oral availability", "setting": "[2]", "result": "poor"}, {"measurement": "Half life in plasma", "setting": "[2]; plasma", "result": "~ 1 h"}, {"measurement": "Clinical efficacy against P. falciparum malaria", "setting": "P. falciparum malaria", "result": "effective against P. falciparum malaria"}]}, {"smiles": "CCN(CC)CCCC(C)Nc1ccnc2cc(Cl)ccc12", "note": "(centres unmarked) [CQ, chloroquine, reference compound]", "values": [{"measurement": "pIC50", "setting": "P. falciparum Dd2 strain", "result": 6.92}, {"measurement": "pIC50", "setting": "P. falciparum 3D7 strain", "result": 7.68}]}, {"smiles": "CC(=O)N(O)CCC(c1cccnc1)P(=O)(O)O", "note": "(centres unmarked) [5m]", "values": [{"measurement": "pIC50", "setting": "P. falciparum Dd2 strain", "result": 6.51}, {"measurement": "pEC50", "setting": "P. falciparum Dd2 strain; DD2, read-out: EC50 against P. falciparum Dd2", "result": 6.20}, {"measurement": "pIC50", "setting": "P. falciparum 3D7 strain", "result": 6.36}]}, {"smiles": "O=CN(O)CCC(c1ccncc1)P(=O)(O)O", "note": "(centres unmarked) [4p]", "values": [{"measurement": "pIC50", "setting": "P. falciparum Dd2 strain", "result": 6.77}, {"measurement": "pIC50", "setting": "P. falciparum 3D7 strain", "result": 6.74}]}]}
